Measurements taken from article PMC10215143, “D- and N-Methyl Amino Acids for Modulating the Therapeutic Properties of Antimicrobial Peptides and Lipopeptides” (Antibiotics, 2023).
Converted amounts (≈) assume the structure as drawn. Like-named read-outs stand apart in the source and are kept apart here. Where a SMILES comes first, the peptide text is derived from it. Where no end group is shown, it is not given here. [ ]: non-standard residue; d: D form. The star is where a group is joined. Decanoyl = CCCCCCCCCC(=O)*

How the values were obtained:
Gram (+) bacteria = settings: for MIC Average Bacteria Gram (+): average over Gram (+) strains; for TI Bacteria Gram (+), HC50/MIC average: first value of the cell, a single value holds for HC50 and IC50 (400 µM used); for TI Bacteria Gram (+), IC50/MIC average: second value of the cell, HeLa IC50 based
Protocol: (§1) The MIC against bacterial strains was determined by the modified broth microtiter dilution method, following the procedures proposed by R.E.W. Hancock Laboratory for testing antimicrobial peptides. The target strains Escherichia coli ATCC 35218, Pseudomonas aeruginosa ATCC 27853, Enterococcus faecalis ATCC 29212, and Staphylococcus aureus ATCC 25923 belong to the American Type Culture Collection (ATCC). The Methicillin-Resistant Staphylococcus aureus BSF FBCB1313 strain (MRSA) was provided by the Clinical Bacteriology Section of FBCB-UNL. All strains were activated by culture for 24 h at 37 °C in Mueller-Hinton Broth (MHB) (Biokar Diagnostics, Cedex, France). Each inoculum was taken and adjusted to a cellular concentration of 5 × 10^5 colony-forming units (CFU)/mL in diluted MHB. All the peptides were dissolved in bovine serum albumin buffer with the addition of 0.01% acetic acid; 100 µL of each inoculum was added to 11 µL of peptide solution in serial 2-fold dilutions and were incubated for 18–24 h at 37 °C. The MIC was the lowest peptide concentration that inhibited visible growth of each bacterial strain. The test was conducted in triplicate.
(§2) The TI is defined as the relationship between the concentration that caused 50% of hemolysis (HC50) or a 50% reduction in HeLa cell viability and the MIC. Thus, higher TI values indicate greater antimicrobial specificity. […] The average MIC for each peptide against different microorganism groups was used to calculate the TI value.

Gram (−) bacteria = settings: for MIC Average Bacteria Gram (−): average over Gram (−) strains; for TI Bacteria Gram (−), HC50/MIC average: first value of the cell, a single value holds for HC50 and IC50 (400 µM used); for TI Bacteria Gram (−), IC50/MIC average: second value of the cell, HeLa IC50 based
Protocol: as §1, §2

Yeast [1] = settings: for MIC Average Yeast: 24 h; for TI Yeast, HC50/MIC average: first value of the cell, a single value holds for HC50 and IC50 (400 µM used); for TI Yeast, IC50/MIC average: second value of the cell, HeLa IC50 based
Protocol: Each inoculum was taken and the cellular concentration was adjusted to 2 × 10^3 CFU/mL in Sabouraud Dextrose Broth (SDB) (Biokar Diagnostics, Cedex, France). Next, 50 µL of these inocula was added to 50 µL of peptide solution in serial 2-fold dilutions. […] The MIC was considered the lowest peptide concentration that inhibited visible growth of each yeast strain. The test was conducted in triplicate.
as §2

S. aureus ATCC 25923 = format: cell-based, Staphylococcus aureus
Protocol: (§3) The test was conducted in triplicate.

C. albicans PEEC 2 = format: cell-based, Candida albicans; settings: PEEC 2, 24 h
Protocol: (§4) Each inoculum was taken and the cellular concentration was adjusted to 2 × 10^3 CFU/mL in Sabouraud Dextrose Broth (SDB) (Biokar Diagnostics, Cedex, France). Next, 50 µL of these inocula was added to 50 µL of peptide solution in serial 2-fold dilutions. […] […] The test was conducted in triplicate.

P. aeruginosa ATCC 27853 = format: cell-based, Pseudomonas aeruginosa; settings: ATCC 27853, 24 h
Protocol: as §3

Human erythrocytes = assay: Hemolysis assay; format: cell-based; settings: human erythrocytes 0.4% (v/v), 37 °C, 60 min, 6.25 to 400 µM
Protocol: (§5) Hemolytic activity was determined using red blood cells and the hemoglobin released was measured at 405 nm. The percentage of hemolysis corresponding to the synthetic compounds is shown in Figure 1 while the HC50 values are provided in Table 3. […] Substitutions by N-methyl and D-amino acids reduced the hemolytic activity of the peptides and lipopeptides. […] For all the peptides and most of the lipopeptides, the HC50 values exceeded 400 μM. Indeed, the HC50 values were lower only for C10:0-A2(9-NMeLys) and C10:0-A2, which were around 300 and 200 μM, respectively.
(§6) Erythrocyte lysis was determined using the following previously optimized protocols. Human erythrocytes from a healthy voluntary donor were isolated by centrifugation (3000 rpm for 10 min) after washing three times with Physiological Solution (PS). Erythrocyte solutions were prepared at a concentration of 0.4% (v/v) in PS. Test tubes containing 200 µL of erythrocyte solution were incubated at 37 °C for 60 min with 200 µL of peptide solution at concentrations ranging from 6.25 to 400 µM. After centrifugation at 3000 rpm for 5 min, supernatant absorbance was measured at 405 nm. Lysis induced by 1% Triton X-100 was taken as a 100% reference value.

C. tropicalis DBFIQ 3 = format: cell-based, Candida tropicalis; settings: DBFIQ 3, 24 h
Protocol: as §4

[2] = test system: S. aureus RM * SA1 (Methicillin-resistant Staphylococcus aureus); settings: S. aureus RM * SA1 (MRSA)
HeLa cells = settings: for IC50: 24 h
Protocol: We assessed the cytotoxicity of the compounds synthesized using HeLa cells.
The 3–4,5-dimethylthiazol-2,5-biphenyl tetrazolium bromide (MTT) cell viability assay was used to assess the cytotoxic activity of synthetic compounds against the human HeLa line. HeLa cells were seeded in 96-well plates at 1 × 10^5 cells/well, in which the peptide solution was added at different concentrations (3.125–400 μM) for 24 h of incubation. Next, MTT reagent (Sigma-Aldrich, St. Louis, MO, USA) was added, and the cells were incubated for 2 h. Then, 100 μL of dimethylsulfoxide (DMSO) was added to each well to dissolve formazan crystals, and the plates were read at 595 nm.

E. coli ATCC 35218 = format: cell-based, Escherichia coli; settings: ATCC 35218, 24 h
Protocol: as §3

E. faecalis ATCC 29212 = format: cell-based, Enterococcus faecalis
Protocol: as §3

trypsin = settings: after 7 h of treatment
Protocol: (§7) The enzymatic stability of the peptides and lipopeptides was determined by measuring residual antimicrobial activity using the agar diffusion method [42]. To this end, 60 µL of the peptide (treated and untreated) in phosphate buffer (0.1 mM pH: 5.5) was added to a 7 mm well on an agar plate previously seeded with 1 mL of a fresh culture of S. aureus ATCC 25923. The plates were incubated for between 18 and 24 h at 37 °C, and then the inhibition halo diameter was measured. The test was conducted in duplicate.

[3] = Critical micelle concentration by conductimetry in Milli-Q water; format: physicochemical; settings: 25 °C
Protocol: On the other hand, acylation confers that the peptide has capacity to self-assemble into nanostructures, resulting in a surfactant-like structure, which may affect the extent of peptide insertion and disruption of bacterial membrane integrity. In this work, the CMC of the lipopeptides was determined by conductimetry in Milli-Q water. All the lipopeptides adopted a micellar assembly with CMC values ranging from 2.0 to 5.7 mM (Table 1). […] This effect appeared to be more important when substitution by an N-methyl amino acid was performed on amino acids located on the non-polar face of the amphipathic helix (CMC values of C10:0-A2(8-NMePhe) = 2.01 mM). For all the lipopeptides, the CMC values remained above the MIC values, which could indicate that these molecules interact with the cell membrane as monomers and, consequently, that this property would not be necessary for antimicrobial activity. This notion is in concordance with reports in the literature on short cationic lipopeptides.
A lipopeptide solution was prepared in Milli Q water, and the specific conductivity of each lipopeptide solution, in a concentration ranging from 0.06 to 18 mg/mL, was measured using a drop conductivity meter (HORIBA, Kyoto, Japan), at 25 °C. Conductivity values were plotted vs. lipopeptide concentration (mS × cm^−1 vs. mg/mL), and the CMC was graphically determined.

in vitro = settings: human, 50% (v/v) human serum in phosphate buffer, pH 7.2
Protocol: A 50% (v/v) human serum solution in phosphate buffer (pH: 7.2) was added to the peptide solution (concentration: 2 mg/mL) and incubated for 8 h at 37 °C. Aliquots were taken at different time points (0, 30, 60, 120, 240, 360, and 480 min) and serum proteins were immediately precipitated with a mixture of ACN-water-TFA (89:10:1). They were kept at 4 °C for 45 min and then centrifuged for 15 min at 10,000 rpm. The supernatants were then analyzed by HPLC-RP using a C18 analytical column (Beckman, Indianapolis, IN, USA). A linear gradient from 5% to 50% of ACN in H2O containing 0.1% TFA was used, at a flow rate of 0.8 mL/min. Absorbance was measured at 220 nm. […] The test was conducted in duplicate.

Hemolysis assay = format: cell-based, human; settings: human, erythrocytes (red blood cells); at higher concentrations (400 μM)
Protocol: as §5, §6

[4] = at 200 μM; cited from earlier work
Yeast [5] = settings: cited from earlier work

Protocol for chymotrypsin: as §7

Row | Compound | MIC Average Bacteria Gram (+) (Gram (+) bacteria) [µM] | TI Bacteria Gram (+), HC50/MIC average (Gram (+) bacteria) | MIC Average Bacteria Gram (−) (Gram (−) bacteria) [µM] | TI Bacteria Gram (−), HC50/MIC average (Gram (−) bacteria) | MIC Average Yeast (Yeast [1]) [µM] | TI Yeast, HC50/MIC average (Yeast [1]) | MIC (C. albicans PEEC 2) [µM] | MIC (P. aeruginosa ATCC 27853) [µM] | HC50 ± SD (Human erythrocytes) [µM] | MIC (C. tropicalis DBFIQ 3) [µM] | MIC [2] [µM] | IC50 (HeLa cells) [µM] | MIC (E. coli ATCC 35218) [µM] | TI Bacteria Gram (+), IC50/MIC average (Gram (+) bacteria) | TI Bacteria Gram (−), IC50/MIC average (Gram (−) bacteria) | TI Yeast, IC50/MIC average (Yeast [1]) | MIC (S. aureus ATCC 25923; ATCC 25923, 24 h) [µM] | remaining at 1 h (in vitro) [%] | hemolysis at 60 min, 400 µM (Hemolysis assay) [%] | hemolysis [4] | also measured
1 | CCCCCCCCCC(=O)N[C@H](C(=O)N[C@H](CCCCN)C(=O)N[C@@H](CCC(N)=O)C(=O)N[C@H](C(=O)N[C@H](CCCCN)C(=O)N[C@H](CCCCN)C(=O)N[C@@H](CC(C)C)C(=O)N[C@@H](Cc1ccccc1)C(=O)N[C@H](CCCCN)C(=O)N[C@H](CCCCN)C(N)=O)C(C)C)[C@@H](C)CC [C10:0-A2(dK), C10:0-IdKQVdKdKLFdKdK-NH2] (Decanoyl-I[dK]QV[dK][dK]LF[dK][dK]-NH2) | >90.6 | <4.4 | 12.1 (≈ 17.1 µg/mL) | 33.1 | 135.9 (≈ 192 µg/mL) | 2.9 | 90.6 (≈ 128 µg/mL) | 1.6 (≈ 2.26 µg/mL) | >400 | 181.2 (≈ 256 µg/mL) | >90.6 | > 400 | 22.6 (≈ 31.9 µg/mL) | – | – | – | – | – | – | – | retained antimicrobial activity (chymotrypsin; after 3 h of treatment): 75%; residual antimicrobial activity (chymotrypsin; after more than 3 h of treatment, in words): total loss of activity; MIC (S. aureus ATCC 25923; S. aureus ATCC 25923): >90.6 µM; MIC (E. faecalis ATCC 29212; E. faecalis ATCC 29212): >90.6 µM; retained inhibition activity against S. aureus strain ATCC 25923 (trypsin): 80%
2 | CCCCCCCCCC(=O)N[C@H](C(=O)N[C@@H](CCCCN)C(=O)N[C@@H](CCC(N)=O)C(=O)N[C@H](C(=O)N[C@@H](CCCCN)C(=O)N[C@@H](CCCCN)C(=O)N[C@@H](CC(C)C)C(=O)N[C@@H](Cc1ccccc1)C(=O)N[C@@H](CCCCN)C(=O)N[C@@H](CCCCN)C(N)=O)C(C)C)[C@@H](C)CC [C10:0-A2, C10:0-IKQVKKLFKK-NH2] (Decanoyl-IKQVKKLFKK-NH2) | 1.9 (≈ 2.68 µg/mL) | 106.8 | 1.4 (≈ 1.98 µg/mL) | 144.9 | 90.6 (≈ 128 µg/mL) | 2.2 | 90.6 (≈ 128 µg/mL) | 1.4 (≈ 1.98 µg/mL) | 202.9 ± 17.5 | 90.6 (≈ 128 µg/mL) | 2.8 (≈ 3.96 µg/mL) | 32.6 ± 2.49 | 1.4 (≈ 1.98 µg/mL) | 17.2 | 23.3 | 0.4 | 1.4 (≈ 1.98 µg/mL) | ~20 | ~45 | around 50% | CMC [3]: 5.74 mM; MIC (Yeast [5]; yeast): 90.6 µM (≈ 128 µg/mL); reduction of HeLa viability (HeLa cells; HeLa cells, MTT): more than 60%; MIC (E. faecalis ATCC 29212; ATCC 29212, 24 h): 1.4 µM (≈ 1.98 µg/mL)
3 | KLFKKLFKKLFK-NH2 [TA4, KLFKKLFKKLFK-NH2] | 6.0 | 66.7 | 3.9 | 102.6 | 40.8 | 9.8 | 40.8 | 2.6 | >400 | 40.8 | 10.2 | 46.4 ± 10.1 | 5.1 | 7.7 | 11.9 | 1.1 | 2.6 | ~40 | ~65 | around 40% | MIC (Yeast [5]; against yeast): 40.8 µM; reduction of HeLa viability (HeLa cells; HeLa cells, MTT): more than 60%; IC50 (HeLa cells; read-out: IC50 ± SD, HeLa cells, MTT, 3.125–400 μM): 46 µM; MIC (E. faecalis ATCC 29212; ATCC 29212, 24 h): 5.1 µM
